Tested on: red blood cell ghosts (plasma membrane)
Assay: Membrane retention coefficient (MRC) in red blood cell ghosts
Type: binding
Details: for Δ MRC: change in MRC to 24 hr
Procedure: Determination of Membrane Retention Coefficient
The membrane retention coefficient (MRC) provides information regarding how well a given compound is retained in the plasma membrane of a cell and is determined as described below.
Generation of red blood cell ghosts for use as a model membrane is achieved by centrifuging whole blood at 300×g for 15 minutes, removal of the plasma and resuspension of the cell pellet in 0.83% (w/v) ammonium chloride. The ghosts are pelleted from the ammonium chloride by centrifuging at 10,000×g for 10 minutes. This ammonium chloride washing procedure is repeated a minimum of five times to insure that complete release of hemoglobin from the cells has occured. The ghosts are labeled with the compound in question at a concentration allowing for detection of the labeled ghosts by instrumental analysis or fluorescent microscopic methods, and at a concentration similar to those that would be used to label cells for a specific application as described above. For the determinations hereinbelow stock solutions of the compounds in question were prepared in ethanol at a molar concentration of 2×10^-3, and working dilutions of the compounds were prepared in iso-osmotic sucrose (52 g/500 ml distilled water). After incubation of the ghosts at an approximate concentration of 1×10^9 ghosts/ml in the working dilutions of the compounds for 10 minutes, the samples were centrifuged at 10,000×g to pellet the ghosts and the staining solution was aspirated from the samples. The labeled ghosts were resuspended in 1 ml of phosphate buffered saline solution containing 10% fetal bovine serum (PBS-FBS). Triplicate 20 ul aliquots were removed from each sample for the determination of the amount of total compound present. The samples were centrifuged as described above and triplicate 20 ul aliquots were removed from the supernatant for quantitative determination of amount of unbound compound present.
After sampling, the supernatant was aspirated and the red cell ghost pellet was resuspended in 1.0 ml of the PBS-FBS, which was once again sampled as described above. This procedure was repeated at least six times, allowing for detection of rapidly released compounds and was monitored after times equal to or greater than 24 hours to allow for the detection of more slowly released compounds. For the determination of the amount of compound present in each sample, the 20 ul aliquots were extracted into 3.0 ml of n-butanol by shaking. The samples were centrifuged at 3000×g to remove membrane debris and the butanol fractions were assayed for compound concentration. Fluorescent compounds are assayed in this manner using peak excitation and emission wave lengths for the particular compounds being assayed to determine the fluorescence units for each sample.
The determination of the amount of compound present in each sample as described above allows for the calculation of the MRC for each washing or fixed time point. The value is obtained by the following formula: […]
wherein CT represents the amount of compound present (in units determined by the method used to assay the compound) in the total sample and CS represents the amount of compound present in the supernatant sample for that particular time point. The comparison of the MRC values defines criteria for identification of the compounds of this invention, these criteria being: 1) the MRC values determined for each washing steps should have a value of at least about 90 and 2) the percent difference between MRC values over at least a 24 hour time period should be less than about 10%. [drawing 14]
The data provided in Table I below are the results from one experiment and serve as an example of the MRC determination. […]

Compound	Membrane retention coefficient (MRC), 24 HR	Δ MRC [%]	Membrane retention coefficient (MRC), WASH 1	Membrane retention coefficient (MRC), WASH 2	Membrane retention coefficient (MRC), WASH 3	Membrane retention coefficient (MRC), WASH 4	Membrane retention coefficient (MRC), WASH 5	Membrane retention coefficient (MRC), WASH 6
CCCCCCCCCCCCCCCCCCCCN1C(=CC=Cc2oc3ccccc3[n+]2CCC)Oc2ccccc21 [Compound H]	90.10	8.43	91.70	97.22	97.97	98.24	98.09	98.40
CCCCCCCCCCCCCCCCCCN1C(=CC=Cc2oc3ccccc3[n+]2CCCCC)Oc2ccccc21 [J]	87.24	10.57	94.07	96.99	98.66	98.39	98.82	97.56
CCCCCCCCCCCCCCN1C(=CC=CC2=[N+](CCCCCCCCCCCCCC)c3ccccc3C2(C)C)C(C)(C)c2ccccc21 [C]	93.90	5.26	94.85	97.24	98.40	98.64	98.43	99.12
CCCCCCCCCCCCCCCCCCCCCCN1C(=CC=Cc2oc3ccccc3[n+]2CCC)Oc2ccccc21 [G]	96.90	1.46	94.42	96.96	98.03	97.93	97.92	98.34
CCCCCCCCCCCCCCCCCCN1C(=CC=Cc2oc3ccccc3[n+]2CCC)Oc2ccccc21 [E]	53.81	44.62	90.69	94.74	96.28	96.74	96.41	97.17
CCCCCCCCCCCCCCN1C(=CC=Cc2oc3ccccc3[n+]2CCC)Oc2ccccc21 [D]	18.84	75.82	50.40	61.20	64.45	65.85	70.62	77.92
CCCCCN1C(=CC=CC2=[N+](CCCCC)c3ccccc3C2(C)C)C(C)(C)c2ccccc21 [A]	0.00	100.00	51.63	51.12	44.82	41.39	12.59	17.48

Source: patent US5667764A, “Compounds, compositions and methods for binding bio-affecting substances to surface membranes of bio-particles” (Zynaxis, Inc., priority 1992, dated 1997)
